# Results from patent publication US8551964B2, “Hsp90 inhibitors with modified toxicity” (The Regents of the University of Colorado, priority 2007, dated 2013).
# What was measured:
# [1] = Interaction of BA Hsp90 inhibitors with reduced glutathione (HPLC, LC-MS, [3H] glutathione)
# Method: GM-glutathione conjugate formation was analyzed by HPLC and LC-MS. Briefly, 50 μM GM, 500 μM NADH, and 5 mM glutathione in the absence and presence of 11.8 μg rh-NQO1 and in the absence or presence of 2 μM ES936, were incubated in 50 mM potassium phosphate buffer, pH 7.4 (1 ml) at room temperature for 5 min. GM-glutathione conjugate formation was analyzed by HPLC at 270 nm (5 min).
# Reaction conditions were: 50 μM 17DMAG, 500 μM NADH, and 5 mM glutathione, in the absence and presence of 11.8 μg rhNQO1 and in the absence or presence of 2 μM ES936, were incubated in 50 mM potassium phosphate buffer, pH 7.4 (1 ml) at room temperature for 3 h. 17DMAG-glutathione conjugate formation was analyzed by HPLC at 270 nm (3 h).
# Reaction conditions were: 50 μM BA and 5 mM GSH were incubated in 50 mM potassium phosphate buffer, pH 7.4 (1 ml) at room temperature in the absence and presence of 11.8 μg of rhNQO1 and 500 μM NADH. BA-GSH conjugate formation was analyzed by HPLC at 270 nm and further confirmed by LC-MS. The amount of BA glutathione conjugate formation was quantified using [3H] glutathione.
# [2] = cited from earlier work; for hepatotoxicity rank within the BA series: series GM, 17AAG, 17DMAG, 17AG, 17AEP-GA
# [3] = target: T1, purified human cytochrome P450 reductase (Homo sapiens, UniProt P16435); test: Redox cycling catalyzed by purified human cytochrome P450 reductase; assay type: biochemical
# T1 sequence (P16435 1-677): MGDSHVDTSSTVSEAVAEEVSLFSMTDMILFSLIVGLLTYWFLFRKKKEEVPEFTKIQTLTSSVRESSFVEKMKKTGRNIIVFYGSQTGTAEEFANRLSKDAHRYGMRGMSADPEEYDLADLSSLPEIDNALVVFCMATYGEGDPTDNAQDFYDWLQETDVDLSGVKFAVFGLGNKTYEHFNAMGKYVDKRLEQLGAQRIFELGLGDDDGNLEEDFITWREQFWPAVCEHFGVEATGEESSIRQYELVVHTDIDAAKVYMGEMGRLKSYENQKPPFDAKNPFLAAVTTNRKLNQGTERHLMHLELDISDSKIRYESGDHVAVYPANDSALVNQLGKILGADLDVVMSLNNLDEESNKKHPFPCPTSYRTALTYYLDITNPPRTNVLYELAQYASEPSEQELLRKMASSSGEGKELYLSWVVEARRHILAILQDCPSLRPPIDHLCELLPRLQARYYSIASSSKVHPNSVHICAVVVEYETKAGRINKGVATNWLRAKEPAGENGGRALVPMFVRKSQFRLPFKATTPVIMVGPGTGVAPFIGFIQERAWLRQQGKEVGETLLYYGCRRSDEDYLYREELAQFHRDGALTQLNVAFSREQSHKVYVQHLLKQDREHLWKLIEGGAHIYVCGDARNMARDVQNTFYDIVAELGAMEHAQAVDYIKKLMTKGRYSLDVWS
# [4] = target: T2, NADPH-cytochrome P450 reductase (human liver microsomes) (Homo sapiens, UniProt P16435); test: One-electron redox cycling of BAs in human liver microsomes (oxygen consumption rate); assay type: in vitro ADME; settings: NADPH- or NADH-dependent, 50 μM BA
# T2 construct: Using human and mouse liver microsomes and either NADPH or NADH as cofactors; from tissue; host or cells: human liver microsomes
# T2 sequence (P16435 1-677): T1 sequence (P16435 1-677)
# Method: (§1) Using human and mouse liver microsomes and either NADPH or NADH as cofactors, the relative one-electron redox cycling rates of BAs mediated by NADPH-cytochrome P450 reductase were determined by measuring the rates of oxygen consumption. The rates of oxygen consumption and NAD(P)H oxidation were measured as indicators of the relative redox cycling rates of BAs. […] The oxygen consumption rate was measured using a Clark electrode (air tight) over 10 min.
# [5] = target: T3, NADPH-cytochrome P450 reductase (mouse liver microsomes) (Mus musculus, UniProt P37040); test: One-electron redox cycling of BAs in mouse liver microsomes (oxygen consumption rate); assay type: in vitro ADME; settings: NADPH- or NADH-dependent, 50 μM BA
# T3 construct: Using human and mouse liver microsomes and either NADPH or NADH as cofactors; from tissue; host or cells: mouse liver microsomes
# T3 sequence (P37040 1-678): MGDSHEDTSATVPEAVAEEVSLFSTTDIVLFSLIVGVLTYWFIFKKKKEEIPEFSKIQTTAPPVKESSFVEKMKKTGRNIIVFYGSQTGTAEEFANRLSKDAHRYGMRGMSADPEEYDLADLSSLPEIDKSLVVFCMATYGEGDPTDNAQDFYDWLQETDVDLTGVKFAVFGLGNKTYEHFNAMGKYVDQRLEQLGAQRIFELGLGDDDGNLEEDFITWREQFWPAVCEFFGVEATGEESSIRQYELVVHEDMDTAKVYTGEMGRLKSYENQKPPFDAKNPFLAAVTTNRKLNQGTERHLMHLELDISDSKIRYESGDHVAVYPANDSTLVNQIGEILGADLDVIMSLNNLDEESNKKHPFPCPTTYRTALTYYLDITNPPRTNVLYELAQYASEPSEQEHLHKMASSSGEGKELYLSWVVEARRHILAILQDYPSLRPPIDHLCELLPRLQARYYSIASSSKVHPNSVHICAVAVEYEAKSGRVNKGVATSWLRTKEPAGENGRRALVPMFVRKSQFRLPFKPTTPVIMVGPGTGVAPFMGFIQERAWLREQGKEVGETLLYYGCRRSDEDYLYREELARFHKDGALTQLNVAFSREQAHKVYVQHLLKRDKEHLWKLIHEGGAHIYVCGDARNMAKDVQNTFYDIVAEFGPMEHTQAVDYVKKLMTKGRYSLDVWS
# Method: as §1
# [6] = 50 μM BA, 5 mM reduced glutathione, pH 7.4, room temperature
smiles,measurement,setting,value
"C=CCNC1=C2C[C@@H](C)C[C@H](OC)[C@H](O)[C@@H](C)/C=C(\C)[C@H](OC(N)=O)[C@@H](OC)/C=C\C=C(/C)C(=O)NC(=CC1=O)C2=O [17AAG, 17-(allylamino)-17-demethoxygeldanamycin]","formation of glutathione conjugate (speed, in words)",[1]; [6],very slow
same,hepatotoxicity rank within the BA series,[2],least hepatotoxic
"CO[C@H]1/C=C\C=C(/C)C(=O)NC2=CC(=O)C(NCCN3CCCC3)=C(C[C@@H](C)C[C@H](OC)[C@H](O)[C@@H](C)/C=C(\C)[C@@H]1OC(N)=O)C2=O [17AEP-GA, 17-demethoxy-17-[[2-(pyrrolidin-1-yl)ethyl]amino]-geldanamycin]",relative rate of glutathione conjugate formation (rank order in the series),[1]; [6],GM>17DMAG>17AEP-GA>17AAG and 17AG
same,fraction conjugated with glutathione,"[1]; 50 μM BA, 5 mM reduced glutathione, pH 7.4, room temperature, within 10 h",about 90%
"CO[C@H]1/C=C\C=C(/C)C(=O)NC2=CC(=O)C(N)=C(C[C@@H](C)C[C@H](OC)[C@H](O)[C@@H](C)/C=C(\C)[C@@H]1OC(N)=O)C2=O [17AG, 17-(amino)-17-demethoxygeldanamycin]","formation of glutathione conjugate (speed, in words)",[1]; [6],very slow
same,relative rate of glutathione conjugate formation (rank order in the series),[1]; [6],GM>17DMAG>17AEP-GA>17AAG and 17AG
"CO[C@H]1/C=C\C=C(/C)C(=O)NC2=CC(=O)C(NCCN(C)C)=C(C[C@@H](C)C[C@H](OC)[C@H](O)[C@@H](C)/C=C(\C)[C@@H]1OC(N)=O)C2=O [17DMAG, 17-demthoxy-17-[[2-(dimethylamino)ethyl]amino]-geldanamycin]",rate of redox cycling,[3],greatest rate
same,17DMAGH2-SG conjugate detection,[1]; [6],not detected
same,relative rate of glutathione conjugate formation (rank order in the series),[1]; [6],GM>17DMAG>17AEP-GA>17AAG and 17AG
same,17DMAG-SG conjugate formed,"[1]; 50 μM BA, 5 mM reduced glutathione, pH 7.4, room temperature, within 4 h",approximately 47 μM
"COC1=C2C[C@@H](C)C[C@H](OC)[C@H](O)[C@@H](C)/C=C(\C)[C@H](OC(N)=O)[C@@H](OC)/C=C\C=C(/C)C(=O)NC(=CC1=O)C2=O [GM, geldanamycin]","relative rate of metabolism (one-electron redox cycling, oxygen consumption)",[4],relatively rapid rate
same,"relative rate of metabolism (one-electron redox cycling, oxygen consumption)",[5],relatively rapid rate
same,relative rate of glutathione conjugate formation (rank order in the series),"[1]; 50 μM, pH 7.4",GM>17DMAG>17AEP-GA>17AAG and 17AG
same,GMH2-SG conjugate formed,"[1]; 5 min, 50 μM, pH 7.4",approximately 45 μM
same,hepatotoxicity,"[2]; administration, Phase I clinical trials",unacceptable hepatotoxicity
same,hepatotoxicity rank within the BA series,[2],most hepatotoxic
